One assay deals with human dermal fibroblasts. Briefly: mGSH distribution after RSL3 in human dermal fibroblasts, confocal imaging. Format: cell-based. Particulars: as the subculture continued. How it is done:
As described in the experiment for MSCs, human dermal fibroblasts subcultured several times were treated with RSL3 and the cells were stained with MitoFreSH-Tracer, and a ratio between cells maintaining mGSH and cells not maintaining mGSH was represented as a percentage through confocal imaging.

The subject of assay [1] is hUC-MSCs. As to the kind of experiment: Mitochondrial GSH (mGSH) distribution after RSL3, MitoFreSH-Tracer, flow cytometry and confocal imaging. The format is cell-based, human. How it is done:
After the cultured human umbilical cord-derived mesenchymal stem cells (hUC-MSCs) at passage 4, 7 or 15 were treated with various concentrations of RSL3 and stained with MitoFreSH, the distribution pattern of mitochondrial GSH (mGSH) in the cells was confirmed by histograms using flow cytometry and confocal imaging.
hUC-MSCs at passage 4, 7 or 15 were prepared, seeded at 70000 cells/well in a 6-well cell culture plate, and cultured at 37° C. for 24 hours. The medium used in the culture was prepared by adding 10% fetal bovine serum and 1× penicillin-streptomycin to α-MEM. […] The cells detached from the plate were transferred to an FACS tube and stored on ice, and a fluorescence level was measured using a flow cytometer.
hUC-MSCs at passage 4, 7 or 15 were prepared, seeded at 7000 cells/100 μl per well in a 96-well cell culture plate, and cultured at 37° C. for 24 hours. […] To remove MitoFreSH-Tracer from the medium before measurement, the medium was exchanged with fresh 10 mM HEPES-containing HBSS, and fluorescence images were measured using a confocal imaging system, Operetta.
A F510/F580 ratio referring to a GSH mean value in cells was calculated by measuring fluorescence values of F510 (fluorescence value when MitoFreSH-Tracer was bound with SH) and F580 (fluorescence value of MitoFreSH-Tracer, which was not bound with SH) in cells and dividing the F510 value by the F580 value. […]
(In general: Flow cytometry measures light scatter and fluorescence of single cells or particles in a stream.)

The subject of assay [2] is hUC-MSCs. Briefly: CD146 surface expression in mGSH^High and mGSH^Low cells after RSL3, flow cytometry. The format is cell-based, human. As to conditions: P4 hUC-MSC, compared with mGSH level-maintaining group. The source says:
To confirm whether the stem cell function of cells in which an mGSH level decreased is deteriorated under lipid oxidative stress caused by RSL3 treatment, an expression level of CD146, which is a cell surface protein known to be highly expressed in stem cells of high quality according to conventional literature, was confirmed through flow cytometry.
The cells were stained by the same method as a method of measuring a mitochondria GSH level through the flow cytometry as described above, and detached from the plate using trypsin. The detached cells were treated with an antibody for flow cytometry with respect to CD146 to which a fluorescent material BUV395 was bound at 4° C. for 30 minutes, and washed with PBS. Using a flow cytometer, F510 and F580 fluorescence values for measuring a GSH level and a BUV395 fluorescence value for measuring CD146 expression were measured. Afterward, based on the point at which the histogram showing the F510/F580 distribution was divided into two peaks, the cells were divided into GSH^High cells (right peak) and GSH^Low cells (left peak) using FlowJo software, and a CD146-positive ratio of the corresponding cells is represented as a percentage (%).

Assay [3] deals with hUC-MSCs. As to the kind of experiment: CFU-F assay of hUC-MSCs. The format is cell-based, human. As to conditions: ferrostatin-1 0.2, 1, 2, 4 μM or liproxstatin-1 0.1, 0.5, 1, 2 μM, 24 hours. How it is done:
The inventors observed an effect of the material on stem cells by treating each stem cells with a material for enhancing a glutathione evaluation parameter. When hUC-MSCs were subcultured in a L-AA2G-containing medium, CFU-F, migration capacity, and an anti-inflammatory effect were observed. A CFU-F assay (n=3) was performed by treating hUC-MSCs with 125 or 250 μg/mL of AA2G for three days. As shown in FIGS. 16A and 16B, it was confirmed that, when AA2G was treated, CFU-F increased. In addition, as hUC-MSCs were treated with 125 or 250 μg/mL of AA2G for three days, PDGF-AA-induced migration capacity (n=3) was analyzed. As shown in FIGS. 17A and 17B, it was confirmed that the migration capacity was increased by AA2G treatment. In addition, the reduction in T cell proliferation, a reduction in T cell differentiation, and the promotion of Treg cell differentiation were observed by treating hUC-MSCs with 125 or 250 μg/mL of AA2G for three days. […] Meanwhile, hUC-MSCs were cultured with a glutathione precursor such as γ-glutamyl cysteine (GGC, 0.1, 0.25, and 0.5 mM). A CFU-F assay (n=3) was performed by treating hUC-MSCs with each concentration of GGC for 2 hours. […] In addition, SDF1α and PDGF-AA-induced migration capacities (n=3) were analyzed for hUC-MSCs without treatment with GGC, and SDF1α- and PDGF-AA-induced migration abilities (n=3) were analyzed by treating hUC-MSCs with the increasing concentrations of GGC. STI571 was used as a PDGFR kinase inhibitor. As shown in FIGS. 20A to 20C, it was confirmed that, according to an increase in GGC treatment concentration, SDF1α- and PDGF-AA-induced migration capacities were enhanced. A CFU-F assay (n=3) was performed by treating hUC-MSCs with 0.2, 1, 2, and 4 μM ferrostatin-1 and 0.1, 0.5, 1, and 2 μM liproxstatin-1 for 24 hours.

The subject of the next assay is T cells. As to the kind of experiment: Anti-inflammatory effect of treated hUC-MSCs: T cell proliferation, T cell differentiation, Treg cell differentiation. The format is cell-based. Here is the method:
The inventors observed an effect of the material on stem cells by treating each stem cells with a material for enhancing a glutathione evaluation parameter. When hUC-MSCs were subcultured in a L-AA2G-containing medium, CFU-F, migration capacity, and an anti-inflammatory effect were observed. A CFU-F assay (n=3) was performed by treating hUC-MSCs with 125 or 250 μg/mL of AA2G for three days. As shown in FIGS. 16A and 16B, it was confirmed that, when AA2G was treated, CFU-F increased. In addition, as hUC-MSCs were treated with 125 or 250 μg/mL of AA2G for three days, PDGF-AA-induced migration capacity (n=3) was analyzed. As shown in FIGS. 17A and 17B, it was confirmed that the migration capacity was increased by AA2G treatment. In addition, the reduction in T cell proliferation, a reduction in T cell differentiation, and the promotion of Treg cell differentiation were observed by treating hUC-MSCs with 125 or 250 μg/mL of AA2G for three days.
In addition, hUC-MSCs were cultured with ferrostatin-1 (0.2, 1, 2 and 4 μM) and liproxstatin-1 (0.1, 0.5, 1 and 2 μM), which control a glutathione level in cells by inhibiting lipid oxidation. […] Meanwhile, the hUC-MSCs were treated with 1 μM ferrostatin-1 for 24 hours, 0.2 mM GGC for 2 hours, and 2 mM GSH-EE for 2 hours. As a result, the reduction in T cell proliferation ability and the reduction in T cell differentiation capacity were observed, and promotion of Treg cell differentiation was observed.

Setting [4] is: hUC-MSCs treated with 1 μM ferrostatin-1 24 h, 0.2 mM GGC 2 h or 2 mM GSH-EE 2 h.

SMILES strings stand for the structures.

`COC(=O)c1ccc([C@@H]2c3[nH]c4ccccc4c3C[C@@H](C(=O)OC)N2C(=O)CCl)cc1` [RSL3, 1S,3R-RAS-selective lethal 3]: the “proportion of cells in which mGSH decreases by treatment with RSL3” value with human dermal fibroblasts is reported as “increased”. Further, the mGSH levels result with hUC-MSCs [1] (hUC-MSCs passage 4, 7 or 15, RSL3 0.1/0.5/1 μM, dependent on RSL3 concentration and passage number) is listed as “reduced”. The “lowering of CD146-positive ratio in group in which mGSH level is lowered by RSL3” value in the assay with hUC-MSCs [2] was “approximately 25%”.
Regarding `CCOC(=O)c1ccc(NC2CCCCC2)c(N)c1` [ferrostatin-1], the CFU-F result in the assay on hUC-MSCs [3] is recorded as “improved”. For the same molecule, in the assay on T cells (ferrostatin-1 or liproxstatin-1 treatment (FIGS. 27, 28A to 28C)), the “anti-inflammatory effect of the hUC-MSCs” value is listed as “did not alter”. Also, in the assay with T cells (setting [4]), the “T cell differentiation capacity” value is given as “reduction”, the “T cell proliferation ability” value is given as “reduction” and the Treg cell differentiation result is “promotion”. In addition, in the assay on hUC-MSCs [1] (hUC-MSCs treated with RSL3 (FIG. 33)), the “effect of RSL3 on mGSH upon Ferrostatin-1 treatment” value is “disappeared”.

The values above are taken from patent publication US11841369B2, “Method for improving quality of therapeutic cell through real-time glutathione measurement” (CELL2IN, INC., priority 2017, dated 2023).
